Nine compounds from PubChem BioAssay (NCI) can be followed below.

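A five-concentration, 48-hour dose response in 96-well plates underlies each endpoint, interpolated linearly between surrounding concentrations. GI50 marks 50% less growth. Definition used: TGI = concentration required for complete inhibition of growth.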 Some results are limits rather than exact numbers.

Among the test systems are A498 renal; A549 NSCLC; HCT-116 colon; HS 578T breast; IGROV1 ovarian; K-562 leukemia; NCI-H226 lung; SK-MEL-2 melanoma; T-47D breast; UACC-62 melanoma.
Experiment in all cases: NCI tumour cell line growth inhibition, 48 h

On to `Cc1ccc2[nH]c(O)c(N=Nc3ccccc3[N+](=O)[O-])c2c1`, for which the TGI was 34.6 µM in the assay on A498 renal; more than 100 µM in the assay on A549 NSCLC; 12.2 µM with HCT-116 colon; 28.9 µM in the assay on HS 578T breast; 20 µM with IGROV1 ovarian; more than 100 µM in the assay with K-562 leukemia. Further, the TGI is 47.5 µM with NCI-H226 lung, more than 100 µM with SK-MEL-2 melanoma, 14 µM in the assay with T-47D breast and more than 100 µM in the assay on UACC-62 melanoma.
As for `COc1cc2c(/C=C3/C(=O)Nc4ccc(O)cc43)c(Cl)n(Cc3cc(OC)c(OC)c(OC)c3)c2cc1C`, the GI50 in the assay with A498 renal was 3.09 µM; in the assay on A549 NSCLC, 3.45 µM; with HCT-116 colon it was 2180 nM; in the assay on HS 578T breast, 2370 nM; in the assay on K-562 leukemia it was 2170 nM; with NCI-H226 lung it was 2.88 µM. Moreover, the GI50 was 1930 nM in the assay on SK-MEL-2 melanoma, 5.55 µM with T-47D breast and 1580 nM in the assay on UACC-62 melanoma. In addition, the TGI is more than 30.2 µM in the assay on A498 renal; more than 100 µM in the assay on A549 NSCLC; more than 33.2 µM in the assay with HCT-116 colon; more than 30.5 µM in the assay with HS 578T breast; 5.75 µM in the assay with IGROV1 ovarian; more than 31.6 µM with K-562 leukemia. For the same compound, the TGI in the assay with NCI-H226 lung is more than 27 µM; in the assay on SK-MEL-2 melanoma, 13.7 µM; in the assay with T-47D breast, more than 70.8 µM; with UACC-62 melanoma, 8.56 µM.
With `Cc1c[nH]c(=O)n(Cc2nnc(CCC(=O)c3nc4ccccc4[nH]3)o2)c1=O`, the GI50 with A498 renal is 0.296 µM; in the assay on A549 NSCLC, 0.475 µM; with HCT-116 colon, 251 nM; in the assay on HS 578T breast, 285 nM; in the assay on IGROV1 ovarian it was 575 nM; in the assay with K-562 leukemia it was 1030 nM. For the same compound, the GI50 in the assay with NCI-H226 lung is 3.48 µM; with SK-MEL-2 melanoma, 887 nM; with T-47D breast, 1.03 µM; with UACC-62 melanoma it was 721 nM. Also, the TGI in the assay with A498 renal is 3.89 µM; in the assay with A549 NSCLC, more than 100 µM; in the assay with HCT-116 colon, more than 89.8 µM; with HS 578T breast, 2.3 µM; in the assay on IGROV1 ovarian, more than 90.4 µM; in the assay on K-562 leukemia, more than 100 µM. In addition, the TGI with NCI-H226 lung is more than 100 µM; with SK-MEL-2 melanoma, more than 23.9 µM; in the assay with T-47D breast it was more than 100 µM; with UACC-62 melanoma it was more than 88.1 µM.
Take `COc1ccccc1NC(=O)CC(=O)n1nc(C)c(N=Nc2ccccc2Cl)c1C`: the TGI with A498 renal, in the assay on A549 NSCLC, in the assay on HCT-116 colon, in the assay with HS 578T breast, in the assay with IGROV1 ovarian and in the assay on K-562 leukemia was more than 100 µM in each case. Also, the TGI in the assay on NCI-H226 lung, in the assay on SK-MEL-2 melanoma, in the assay on T-47D breast and with UACC-62 melanoma was more than 100 µM each time.
`NNc1nc2ccccc2o1`: the TGI in the assay with A498 renal, with A549 NSCLC, in the assay with HCT-116 colon, with HS 578T breast, in the assay with IGROV1 ovarian and with K-562 leukemia was more than 100 µM in each case. Also, the TGI in the assay on NCI-H226 lung, in the assay on SK-MEL-2 melanoma, with T-47D breast and in the assay on UACC-62 melanoma was more than 100 µM in each case.
For the compound `COc1ccc2nc3c(cc2c1)C(=O)CC(c1ccccc1)C3` (centres undefined), the GI50 was 0.215 µM in the assay with A498 renal; 2.05 µM in the assay on A549 NSCLC; 383 nM with HCT-116 colon; 882 nM in the assay with HS 578T breast; 2320 nM with IGROV1 ovarian; 359 nM in the assay with K-562 leukemia. The GI50 in the assay on NCI-H226 lung was 2.53 µM; in the assay on SK-MEL-2 melanoma it was 771 nM; with T-47D breast, 5.34 µM; with UACC-62 melanoma, 601 nM. Also, the TGI in the assay on A498 renal is 1.18 µM; in the assay with A549 NSCLC, more than 100 µM; in the assay with HCT-116 colon it was more than 100 µM; in the assay on HS 578T breast, more than 100 µM; with IGROV1 ovarian, more than 100 µM; with K-562 leukemia it was more than 100 µM. The TGI in the assay with NCI-H226 lung, with SK-MEL-2 melanoma, in the assay on T-47D breast and in the assay with UACC-62 melanoma was more than 100 µM in each case.
As for `COc1ccc2c(c1)C(=O)c1c-2c(N2CCN(C(=O)CCNCCNCCN)CC2)nc2ccccc12`, the GI50 was 16.9 µM in the assay on A498 renal; 9.51 µM in the assay with A549 NSCLC; 1850 nM in the assay on HCT-116 colon; 14200 nM in the assay with HS 578T breast; 5890 nM in the assay on IGROV1 ovarian; 3330 nM in the assay on K-562 leukemia. The GI50 was 22.6 µM with NCI-H226 lung, 12400 nM in the assay with SK-MEL-2 melanoma, 3.43 µM with T-47D breast and 22300 nM with UACC-62 melanoma. Further, the TGI was 33.7 µM in the assay with A498 renal; 29.4 µM in the assay on A549 NSCLC; 3.7 µM with HCT-116 colon; 46.5 µM in the assay on HS 578T breast; 32.7 µM with IGROV1 ovarian; 9.63 µM with K-562 leukemia. Also, the TGI in the assay with NCI-H226 lung amounted to 78.4 µM; with SK-MEL-2 melanoma it was 37 µM; with T-47D breast it was 15.6 µM; in the assay on UACC-62 melanoma, 55.3 µM.
Regarding `O=C(Nc1cccc(C(F)(F)F)c1)c1ccc(NC2=C(Cl)C(=O)N(Cc3ccccc3)C2=O)cc1`, the GI50 with A498 renal is 24.4 µM; with A549 NSCLC, 34.1 µM; in the assay on HCT-116 colon it was 2810 nM; with HS 578T breast, 22100 nM; in the assay with IGROV1 ovarian it was 2010 nM; with K-562 leukemia, 1460 nM. Besides, the GI50 in the assay with NCI-H226 lung is 16 µM; in the assay with SK-MEL-2 melanoma it was 7040 nM; in the assay on T-47D breast it was 12.4 µM; in the assay with UACC-62 melanoma, 12900 nM. Besides, the TGI with A498 renal was 45.7 µM; in the assay on A549 NSCLC, 84.9 µM; with HCT-116 colon, 9.22 µM; with HS 578T breast, more than 100 µM; in the assay with IGROV1 ovarian it was 4.63 µM; in the assay with K-562 leukemia it was 12.5 µM. Besides, the TGI in the assay on NCI-H226 lung was 35.8 µM; in the assay with SK-MEL-2 melanoma, 24.2 µM; in the assay with T-47D breast, 52.7 µM; in the assay with UACC-62 melanoma it was 25.5 µM.
Turning to `O=S(=O)(O)n1ccnc1` (tested in a mixture with another compound), the TGI in the assay with A498 renal, in the assay with A549 NSCLC, with HCT-116 colon, with HS 578T breast, with IGROV1 ovarian and in the assay on K-562 leukemia was more than 100 µM throughout. Further, the TGI with NCI-H226 lung, in the assay with SK-MEL-2 melanoma, in the assay with T-47D breast and in the assay with UACC-62 melanoma was more than 100 µM each time.
